Test results reported in paper PMC3118037 (International journal for parasitology, 2011).

Key:
[1] = tested on: dispersed schistosome muscle fibres
[2] = tested on: dispersed schistosome muscle fibres; conditions: ref Day et al., 1997; cited from earlier work

Substance | activity in isolated muscle cell assays [1] | effect on individual / dispersed schistosome muscle cells (fibres) [2]
GFVRIamide | lacked measurable activity | 
YIRF-OH |  | lack of effect
YIRFamide |  | potent myoexcitatory effect
